Measurements from patent US7148405B2, “Enzymes responsible for the metabolism of cis-zeatin” (State of Oregon Acting by and through the State Board of …, priority 2000, dated 2006).

Columns and labels:
[1] = molecular target: T1, cis-zeatin O-glucosyltransferase (cis-ZOG1) (Zea mays, UniProt Q93XP7); assay: Enzyme assay of recombinant cis-ZOG1 with cytokinin substrates and UDPG, products analysed by HPLC; type: biochemical; settings: recombinant protein, UDPG as glycosyl donor, HPLC analysis
T1 construct: His7 (seven histidine residues, from the vector); made in house; host or cells: E. coli XL1 Blue
T1 sequence (Q93XP7 1-467): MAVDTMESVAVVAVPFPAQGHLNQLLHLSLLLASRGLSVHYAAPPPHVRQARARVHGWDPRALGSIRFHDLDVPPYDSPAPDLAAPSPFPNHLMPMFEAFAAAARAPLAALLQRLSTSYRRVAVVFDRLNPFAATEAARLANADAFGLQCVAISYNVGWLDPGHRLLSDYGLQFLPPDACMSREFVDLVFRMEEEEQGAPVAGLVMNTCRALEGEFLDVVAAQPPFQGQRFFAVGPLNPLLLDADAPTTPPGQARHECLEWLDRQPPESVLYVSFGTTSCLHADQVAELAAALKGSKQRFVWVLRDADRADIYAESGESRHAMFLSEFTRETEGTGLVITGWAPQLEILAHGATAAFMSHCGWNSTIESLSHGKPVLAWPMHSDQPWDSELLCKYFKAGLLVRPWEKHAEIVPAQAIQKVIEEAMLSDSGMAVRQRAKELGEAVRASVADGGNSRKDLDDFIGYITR
Experimental: (§1) For FIG. 2B, 200 μL of supernatant obtained from cell culture was incubated with approximately 1 nmol of labeled zeatin and UDPG for 2 hours. For FIG. 2C, Approximately 0.4 nmole of reaction product obtained from reactions similar to FIG. 2B was incubated with β-glucosidase for 4 hours to reconvert the product to zeatin.
3. Isolation of Recombinant Proteins. To obtain recombinant proteins, the ORF of the selected cDNA was amplified by PCR using primers (SEQ ID NOS: 9 and 10) that generated products having an NcoI site at the 5′ and a XbaI site at the 3′ terminus. The PCR products were digested with NcoI and XbaI restriction enzymes and ligated into a p Trc 99A expression vector (Pharmacia) modified to contain seven histidine residues (CAT or CAC), and transformed into the XL1 Blue cell line. Colonies were selected on AMP-LB plates. […] After 4 hours cells were collected and frozen at −80 C overnight. Cells were resuspended in 0.5 mL of 0.2 M Tris pH 7.5 containing 1 mg/mL of lysozyme. Samples were incubated on ice for 30 minutes, frozen for 10 minutes at −80 C, thawed in cold water, and then DNAase (1 μg/10 μl supernatant) was added. After 10 minutes at room temperature, the samples were sonicated with four 15-second bursts to release proteins from cells. Soluble proteins were collected after centrifugation and used for enzyme assays.
4. Enzyme assays and analysis of reaction products. Enzyme activity was determined as reported previously (Dixon et al., Plant Physiol. 90:1316–1321, 1989). Briefly, a specified amount of recombinant protein, ^14C-labeled cis-zeatin (specific activity of 24 mCi/mmol), and a glycosyl donor (4 mM of UDPG) were incubated in MgCl2 (0.07 M) in 0.17 M Tris, pH 8.0. Reaction products were then analyzed by HPLC (Dixon et al., Plant Physiol. 90:1316–1321, 1989).

β-glucosidase = settings: reaction product incubated with β-glucosidase for 4 hours
Experimental: as §1

Row | Compound | use as substrate by the recombinant enzyme (O-glucosylation) [1] | re-conversion to cis-zeatin by β-glucosidase (β-glucosidase)
1 | CC(CO)CCNc1ncnc2nc[nH]c12 (stereo not drawn) [dihydrozeatin] | does not use | 
2 | cis-zeatin O-glucoside |  | re-conversion of the reaction product to cis-zeatin by β-glucosidase
3 | C/C(=C/CNc1ncnc2nc[nH]c12)CO [cis-zeatin] | formation of O-glucosyl-cis-zeatin from cis-zeatin | 

Now from value to compound, other results behind:

Row | use as substrate by the recombinant enzyme (O-glucosylation) [1] | Compound | re-conversion to cis-zeatin by β-glucosidase (β-glucosidase)
4 | does not use | CC(CO)CCNc1ncnc2c1ncn2[C@@H]1O[C@H](CO)[C@@H](O)[C@H]1O (stereo partly drawn) [ribosyldihydrozeatin] | 
5 | does not use | C/C(=C\CNc1ncnc2c1ncn2[C@@H]1O[C@H](CO)[C@@H](O)[C@H]1O)CO (relative stereo) [trans-ribosylzeatin] | 
6 | does not use | C/C(=C\CNc1ncnc2[nH]cnc12)CO [trans-zeatin] | 
